Our source for the IC50 and Activity values is ChEMBL document CHEMBL3351703, “Probing the selective antitumor activity of 22-oxo-26-selenocyanocholestane derivatives” (Eur J Med Chem, 2014).

Molecules are shown by their SMILES. Calls of active or inactive are those of the source. The rule behind the calls is not given here.

Series [1] in a line: (§1) Antiproliferative activity against human CaSki cells after 24 hrs by MTT assay. It is filed as functional, cell-based. The conditions noted are these: Ca-Ski.
A short description of series [2]: (§2) Antiproliferative activity against human ViBo cells after 24 hrs by MTT assay. The format is functional, cell-based. On the technique in general: Formazan colour is commonly taken as a measure of viable cells.
In series [3] the test system is HeLa. Nature of the series: Induction of apoptosis in human HeLa cells assessed as caspase-3 activation at 10 to 18 uM after 15 mins by DAPI staining-based epifluorescence microscopic analysis. It is filed as functional, cell-based.
In series [4] the test system is HeLa. Nature of the series: Cell cycle arrest in human HeLa cells assessed as accumulation at S phase at IC50 after 24 hrs by propidium iodide staining-based flow cytometric analysis relative to control. It is filed as functional. On the technique in general: In flow cytometry, cells or beads pass a laser one at a time.
Series [5] in a line: Cell cycle arrest in human ViBo cells assessed as accumulation at sub-G1 phase at IC50 after 24 hrs by propidium iodide staining-based flow cytometric analysis relative to control. It is filed as functional.
The nature of series [6]: Cytotoxicity against human CaSki cells at IC50 after 24 hrs by LDH release assay relative to control. The format is functional, Ca-Ski. For orientation: LDH in the medium is a marker of cell lysis.
In series [7] the test system is HeLa. Nature of the series: Cell cycle arrest in human HeLa cells assessed as accumulation at G1 phase at IC50 after 24 hrs by propidium iodide staining-based flow cytometric analysis (reference value: 62.51 +/- 3.76%). The format is functional.
Series [8] concerns Ca-Ski. Nature of the series: Induction of apoptosis in human CaSki cells assessed as chromatin condensation by DAPI staining-based fluorescence microscopic analysis. It is filed as functional, cell-based.
Series [9] has as its system HeLa. Nature of the series: Antiproliferative activity against human HeLa cells after 24 hrs by MTT assay. It is filed as functional, cell-based.
In series [10] the test system is ViBo. Nature of the series: Induction of apoptosis in human ViBo cells assessed as chromatin condensation by DAPI staining-based fluorescence microscopic analysis. It is filed as functional, cell-based.
Series [11] has as its system HeLa. Nature of the series: Cytotoxicity against human HeLa cells at IC50 after 24 hrs by LDH release assay relative to control. The format is functional.
In series [12] the test system is HeLa. Nature of the series: Cell cycle arrest in human HeLa cells assessed as accumulation at G2/M phase at IC50 after 24 hrs by propidium iodide staining-based flow cytometric analysis relative to control. It is filed as functional.
Series [13] relates to Ca-Ski. Nature of the series: Induction of apoptosis in human CaSki cells assessed as caspase-3 activation at 10 to 18 uM after 15 mins by DAPI staining-based epifluorescence microscopic analysis. It is filed as functional, cell-based.
Series [14] deals with PBMC. Nature of the series: Immunosuppressive activity in PHA-stumulated CSFE labeled human enriched PBMC assessed as cell growth at IC50 after 72 hrs by flow cytometric analysis (reference value: 65.90%). The format is functional.
The nature of series [15]: Cell cycle arrest in human CaSki cells assessed as accumulation at sub-G1 phase at IC50 after 24 hrs by propidium iodide staining-based flow cytometric analysis relative to control. The format is functional. Particulars: Ca-Ski.
Series [16] concerns Ca-Ski. The series is described as §1. It is filed as functional, cell-based.
The nature of series [17]: Cell cycle arrest in human CaSki cells assessed as accumulation at G1 phase at IC50 after 24 hrs by propidium iodide staining-based flow cytometric analysis relative to control. The format is functional. Particulars: Ca-Ski.
Series [18] deals with ViBo. Described as §2. The format is functional, cell-based.
Series [19] concerns Ca-Ski. Nature of the series: Induction of apoptosis in human CaSki cells assessed as effect on cell morphology. It is filed as functional, cell-based.
Series [20] is described as follows: Cell cycle arrest in human ViBo cells assessed as accumulation at S phase at IC50 after 24 hrs by propidium iodide staining-based flow cytometric analysis relative to control. The format is functional.
Series [21] concerns ViBo. Nature of the series: Induction of apoptosis in human ViBo cells assessed as effect on cell morphology. It is filed as functional, cell-based.
The subject of series [22] is HeLa. Nature of the series: Induction of apoptosis in human HeLa cells assessed as DNA fragmentation at 10 to 18 uM after 24 hrs by TUNEL assay. It is filed as functional, cell-based.
Series [23] concerns Ca-Ski. Nature of the series: Induction of apoptosis in human CaSki cells assessed as DNA fragmentation at 10 to 18 uM after 24 hrs by TUNEL assay. It is filed as functional, cell-based.
Series [24] relates to ViBo. Nature of the series: Induction of apoptosis in human ViBo cells assessed as caspase-3 activation at 10 to 18 uM after 15 mins by DAPI staining-based epifluorescence microscopic analysis. It is filed as functional, cell-based.
A short description of series [25]: Cell cycle arrest in human ViBo cells assessed as accumulation at G1 phase at IC50 after 24 hrs by propidium iodide staining-based flow cytometric analysis relative to control. The format is functional.
Series [26] is described as follows: Cytotoxicity against human ViBo cells at IC50 after 24 hrs by LDH release assay relative to control. The format is functional.
The test system of series [27] is HeLa. Nature of the series: Induction of apoptosis in human HeLa cells assessed as effect on cell morphology. The format is functional, cell-based.
In series [28] the test system is ViBo. Nature of the series: Induction of apoptosis in human ViBo cells assessed as DNA fragmentation at 10 to 18 uM after 24 hrs by TUNEL assay. The format is functional, cell-based.
Series [29] relates to HeLa. Nature of the series: Cell cycle arrest in human HeLa cells assessed as accumulation at sub-G1 phase at IC50 after 24 hrs by propidium iodide staining-based flow cytometric analysis relative to control. It is filed as functional.
Series [30] is described as follows: Cytotoxicity against PHA-activated human lymphocytes at IC50 after 72 hrs by LDH release assay. It is filed as cell-based. Particulars: lymphocyte.
Series [31] relates to HeLa. Nature of the series: Induction of apoptosis in human HeLa cells assessed as chromatin condensation by DAPI staining-based fluorescence microscopic analysis. The format is functional, cell-based.
Series [32] can be described thus: Cell cycle arrest in human ViBo cells assessed as accumulation at G2/M phase at IC50 after 24 hrs by propidium iodide staining-based flow cytometric analysis relative to control. The format is functional.
A short description of series [33]: Cell cycle arrest in human CaSki cells assessed as accumulation at G2/M phase at IC50 after 24 hrs by propidium iodide staining-based flow cytometric analysis relative to control. Particulars: Ca-Ski. The format is functional.
The nature of series [34]: Cell cycle arrest in human CaSki cells assessed as accumulation at S phase at IC50 after 24 hrs by propidium iodide staining-based flow cytometric analysis relative to control. The format is functional. The conditions noted are these: Ca-Ski.
Series [35] concerns Ca-Ski. Nature of the series: Induction of apoptosis in human CaSki cells assessed as caspase-3 activation at 95 to 97 uM after 15 mins by DAPI staining-based epifluorescence microscopic analysis. It is filed as functional, cell-based.
In series [36] the test system is ViBo. Nature of the series: Induction of apoptosis in human ViBo cells assessed as caspase-3 activation at 95 to 97 uM after 15 mins by DAPI staining-based epifluorescence microscopic analysis. It is filed as functional, cell-based.
Series [37] concerns HeLa. Nature of the series: Induction of apoptosis in human HeLa cells assessed as caspase-3 activation at 95 to 97 uM after 15 mins by DAPI staining-based epifluorescence microscopic analysis. The format is functional, cell-based.
The subject of series [38] is Ca-Ski. Nature of the series: Induction of apoptosis in human CaSki cells assessed as DNA fragmentation at 95 to 97 uM after 24 hrs by TUNEL assay. The format is functional, cell-based.
The subject of series [39] is ViBo. Nature of the series: Induction of apoptosis in human ViBo cells assessed as DNA fragmentation at 95 to 97 uM after 24 hrs by TUNEL assay. It is filed as functional, cell-based.
Series [40] has as its system HeLa. Nature of the series: Induction of apoptosis in human HeLa cells assessed as DNA fragmentation at 95 to 97 uM after 24 hrs by TUNEL assay. The format is functional, cell-based.

The IC50 is the concentration needed to halve the response being measured. A high value points to lower potency. Take `CC(=O)O[C@H]1C(=O)[C@@]2(C)[C@H]([C@H](OC(=O)c3ccccc3)[C@]3(O)C[C@H](OC(=O)[C@H](O)[C@@H](NC(=O)c4ccccc4)c4ccccc4)C(C)=C1C3(C)C)[C@]1(OC(C)=O)CO[C@@H]1C[C@@H]2O` [PACLITAXEL]: the IC50 in series [1] came to 2.9 µM; in series [2], 1.6 µM.
Consider `CC(=O)O[C@H]1CC[C@@]2(C)C(=CC[C@H]3[C@@H]4C[C@H](OC(C)=O)[C@H]([C@H](C)C(=O)CC[C@@H](C)C[Se]C#N)[C@@]4(C)CC[C@@H]32)C1`, for which the outcome in [3], in series [8], in series [10], in series [13], in [19] and in [21] was Active. Further, the result in [22], in series [23], in series [24], in series [27], in series [28] and in series [31] was Active. Further, the Activity was 17.04% in [4]; 8.13% in series [5]; 33% in series [6]; 56.19% in series [7]; “Dose-dependent effect” in series [9]; 72% in [11]. The Activity in [12] is 11.58%; in series [14], 51.96%; in series [15], 41.4%; in [16] it was “Dose-dependent effect”; in [17], 31.2%; in series [18], “Dose-dependent effect”. The Activity is 8.67% in series [20]; 69.5% in series [25]; 45% in [26]; 12.6% in series [29]; “Non-toxic” in series [30]; 7.27% in series [32]. Besides, the Activity was determined as 9.68% in [33] and 18.9% in series [34]. In addition, the half-inhibitory concentration (IC50) in series [9] is 10 µM; in [1], 15 µM; in series [2], 18 µM.
Turning to `CC(=O)O[C@H]1CC[C@@]2(C)[C@@H](CC[C@@H]3[C@@H]2CC(=O)[C@]2(C)[C@@H]([C@H](C)C(=O)CC[C@@H](C)C[Se]C#N)[C@@H](OC(C)=O)C[C@@H]32)C1`, the Activity was 18.54% in series [4]; 10.8% in [5]; 0% in series [6]; 64.04% in series [7]; “Dose-dependent effect” in [9]; 27% in series [11]. For the same compound, the Activity in [12] was 10.9%; in series [14], 25.28%; in [15], 8.2%; in series [16], “Dose-dependent effect”; in [17], 49.2%; in series [18] it was “Dose-dependent effect”. The Activity in [20] was 16.2%; in series [25] it was 59.3%; in series [26] it was 16%; in series [29], 4.74%; in series [30] it was “Non-toxic”; in [32], 5.8%. The Activity in [33] worked out at 13.2%; in series [34] it was 19.4%. Besides, the outcome in series [35], in series [36], in series [8], in series [37], in series [10] and in [19] was Active. In addition, the result in series [38], in series [21], in series [39], in series [27], in series [40] and in [31] was Active. Moreover, the IC50 stood at 95 µM in series [9], 97 µM in series [1] and 97 µM in [2].
